Patent publication US20080274522A1, “METHOD FOR THE PRODUCTION OF 2-BUTANONE” (priority 2007, published 2008)

Key:
[1] = system: E. coli strain BW25113; experiment: Survival of E. coli in MEK shock; assay type: cell-based, Escherichia coli; details: for % Survival at 28° C. / % Survival at 37° C.: 30 min, average of duplicate experiments
Experimental: Survival of MEK shock was tested at exposure temperatures of 28° C. or 37° C.

[2] = system: Lactobacillus plantarum PN0512; experiment: Growth of L. plantarum PN0512 in the presence of butanols at different temperatures (OD600); assay type: cell-based; parameters: key to Growth of L. plantarum PN0512 in the presence of 1-butanol / Growth of L. plantarum PN0512 in the presence of isobutanol / Growth of L. plantarum PN0512 in the presence of 2-butanol: +: growth observed as an increase in OD600.; −: no growth observed, i.e. no change in OD600
Experimental: Tolerance levels of bacterial strain Lactobacillus plantarum PN0512 (ATCC # PTA-7727) were determined at 25° C., 30° C. and 37° C. as follows. The strain was cultured in S30L medium (i.e., 10 mM ammonium sulfate, 5 mM potassium phosphate buffer, pH 7.0, 50 mM MOPS, pH 7.0, 2 mM MgCl2, 0.7 mM CaCl2, 50 μM MnCl2, 1 μM FeCl3, 1 μM ZnCl2, 1.72 μM CuCl2, 2.53 μM COCl2, 2.42 μM Na2MoO4, 2 μM thiamine hydrochloride, 10 mM glucose, and 0.2% yeast extract). An overnight culture in the absence of any test compound was started in 15 mL of the S30L medium in a 150 mL flask, with incubation at 37° C. in a shaking water bath. The next morning, the overnight culture was diluted into three 500 mL flasks containing 150 mL of fresh medium to an initial OD600 of about 0.08. Each flask was incubated in a shaking water bath, one each at 25° C., 30° C. and 37° C. Each large culture was allowed to acclimate at the test temperature for at least 0.5 h. […] Growth was followed by measuring OD600 for six hours after addition of the compounds.

[3] = system: glycerol dehydratase; experiment: Butanediol dehydratase activity of glycerol dehydratase; assay type: biochemical, Klebsiella pneumoniae; details: 10 mM meso-2,3-butanediol, 12 μM coenzyme B12, pH 8.2, 37° C., crude cell free extract of KLP23/pSYCO12
Description: Glycerol dehydratase (E.C. 4.2.1.30) and diol dehydratase (E.C. 4.2.1.28), while structurally related, are often distinguished in the art based on various differences that include substrate specificity. […] The recombinant E. coli strain KLP23/pSYCO12, comprising Klebsiella pneumoniae genes encoding the multiple subunits of glycerol dehydratase (alpha: SEQ ID NO:145 (coding region) and 146 (protein); beta: SEQ ID NO: 147 (coding region) and 148 (protein); and gamma: SEQ ID NO: 149 (coding region) and 150 (protein)) and Klebsiella pneumoniae genes encoding the multiple subunits of glycerol dehydratase reactivase (large subunit, SEQ ID NO: 151 (coding region) and 152 (protein); and small subunit, SEQ ID NO: 153 (coding region) and 154 (protein)), is described in Emptage et al. U.S. Pat. No. 6,514,733 and in WO 2003089621, which are herein incorporated by reference. A crude, cell free extract of KLP23/pSYCO12 was prepared by methods known to one skilled in the art. […] The formation of 2-butanone was monitored by HPLC (Shodex SH-1011 column and SH-G guard column with refractive index detection; 0.01 M H2SO4 as the mobile phase at a flow rate of 0.5 mL/min and a column temperature of 50° C.; 2-butanone retention time=40.2 min). The rate of 2-butanone formation by the glycerol dehydratase preparation was determined to be 0.4 nmol/min/mg of crude protein.

## CCC(C)=O [MEK, 2-butanone]
[1]; 28° C.
  Concentration with full survival: 6 % w/v
[1]; 37° C.
  Concentration with full survival: 4 % w/v
  Concentration with no survival: 6 % w/v
[1]; MEK 4 % w/v
  % Survival at 28° C.: 100%
  % Survival at 37° C.: 100%
[1]; MEK 6 % w/v
  % Survival at 28° C.: 100%
  % Survival at 37° C.: 0%
[1]; MEK 8 % w/v
  % Survival at 28° C.: 0.002%
  % Survival at 37° C.: 0%

## CC(C)CO [isobutanol]
[2]; 0.5 % w/v, 37° C.
  Growth of L. plantarum PN0512 in the presence of isobutanol: +
[2]; 1.0 % w/v, 37° C.
  Growth of L. plantarum PN0512 in the presence of isobutanol: +
[2]; 1.5 % w/v, 25° C.
  Growth of L. plantarum PN0512 in the presence of isobutanol: +
[2]; 1.5 % w/v, 30° C.
  Growth of L. plantarum PN0512 in the presence of isobutanol: +
[2]; 1.5 % w/v, 37° C.
  Growth of L. plantarum PN0512 in the presence of isobutanol: +
[2]; 1.6 % w/v, 37° C.
  Growth of L. plantarum PN0512 in the presence of isobutanol: +
[2]; 1.8 % w/v, 37° C.
  Growth of L. plantarum PN0512 in the presence of isobutanol: +
[2]; 2.0 % w/v, 25° C.
  Growth of L. plantarum PN0512 in the presence of isobutanol: +
[2]; 2.0 % w/v, 30° C.
  Growth of L. plantarum PN0512 in the presence of isobutanol: +
[2]; 2.0 % w/v, 37° C.
  Growth of L. plantarum PN0512 in the presence of isobutanol: +
[2]; 2.1 % w/v, 37° C.
  Growth of L. plantarum PN0512 in the presence of isobutanol: +
[2]; 2.3 % w/v, 37° C.
  Growth of L. plantarum PN0512 in the presence of isobutanol: +
[2]; 2.4 % w/v, 25° C.
  Growth of L. plantarum PN0512 in the presence of isobutanol: +
[2]; 2.4 % w/v, 30° C.
  Growth of L. plantarum PN0512 in the presence of isobutanol: +
[2]; 2.4 % w/v, 37° C.
  Growth of L. plantarum PN0512 in the presence of isobutanol: +
[2]; 2.7 % w/v, 25° C.
  Growth of L. plantarum PN0512 in the presence of isobutanol: +
[2]; 2.7 % w/v, 30° C.
  Growth of L. plantarum PN0512 in the presence of isobutanol: +
[2]; 2.7 % w/v, 37° C.
  Growth of L. plantarum PN0512 in the presence of isobutanol: +
[2]; 2.9 % w/v, 25° C.
  Growth of L. plantarum PN0512 in the presence of isobutanol: +
[2]; 2.9 % w/v, 30° C.
  Growth of L. plantarum PN0512 in the presence of isobutanol: +
[2]; 2.9 % w/v, 37° C.
  Growth of L. plantarum PN0512 in the presence of isobutanol: +
[2]; 3.1 % w/v, 25° C.
  Growth of L. plantarum PN0512 in the presence of isobutanol: +
[2]; 3.1 % w/v, 30° C.
  Growth of L. plantarum PN0512 in the presence of isobutanol: +
[2]; 3.1 % w/v, 37° C.
  Growth of L. plantarum PN0512 in the presence of isobutanol: +
[2]; 3.3 % w/v, 25° C.
  Growth of L. plantarum PN0512 in the presence of isobutanol: +
[2]; 3.3 % w/v, 30° C.
  Growth of L. plantarum PN0512 in the presence of isobutanol: −^2
[2]; 3.4 % w/v, 37° C.
  Growth of L. plantarum PN0512 in the presence of isobutanol: −
[2]; 3.6 % w/v, 25° C.
  Growth of L. plantarum PN0512 in the presence of isobutanol: −
[2]; 3.8 % w/v, 37° C.
  Growth of L. plantarum PN0512 in the presence of isobutanol: −
[2]; 4.3 % w/v, 37° C.
  Growth of L. plantarum PN0512 in the presence of isobutanol: −
[2]; 25° C.
  Concentration in which growth was observed: 3.5%
[2]; 30° C.
  Concentration in which growth was not observed: 3.3%
  Concentration in which growth was observed: 3.1%
[2]; 37° C.
  Concentration in which growth was not observed: 3.4%
  Concentration in which growth was observed: 3.1%
[2]; […] w/v, 25° C.
  Growth of L. plantarum PN0512 in the presence of isobutanol: +
[2]; […] w/v, 37° C.
  Growth of L. plantarum PN0512 in the presence of isobutanol: +

## CC(O)C(C)O (stereo not drawn) [meso-2,3-butanediol]
[3]
  Rate of 2-butanone formation: 0.4 nmol/min/mg of crude protein
